Publication PMC6473159, “Potent Inhibition of Zika Virus Replication by Aurintricarboxylic Acid” (Frontiers in Microbiology, 2019)
Like-named read-outs stand apart in the source and are kept apart here.

Tests used:
[1] = Cell viability assay (CellTiter 96), Vero cells; assay type: cell-based, African green monkey; conditions: African green monkey; for CC50 at 36 h: 36 h post-treatment; for CC50 at 72 h: 72 h post-treatment
Experimental: (§1) Cell viability in Vero and A549 cells was measured using the CellTiter 96 Non-Radioactive Cell Proliferation assay (Promega) following the manufacturer’s instructions. […] Plates were incubated at 37°C in a 5% CO2 atmosphere for 36 or 72 h. Samples were treated with 15 μl of Dye Solution and incubated at 37°C in a 5% CO2 atmosphere for 4 h. Next, cells were treated with 100 μl of Solubilization Solution/Stop Mix and absorbance at 570 nm was measured using a Vmax kinetic microplate reader (Molecular Devices, Waltham, MA, United States). Viability of compound-treated cells was calculated as a percentage relative to values obtained with DMSO-treated cells. Non-linear regression curves and the median cytotoxic concentration (CC50) were calculated using GraphPad Prism software version 8.0.

[2] = Cell viability assay (CellTiter 96), A549 cells; assay type: cell-based, human; conditions: human; for CC50 at 36 h: 36 h post-treatment; for CC50 at 72 h: 72 h post-treatment
Experimental: as §1

[3] = system: ZIKV Paraiba/2015; assay: Microplaque reduction assay, ZIKV Paraiba/2015 in Vero cells, post-infection treatment; assay type: cell-based; conditions: for selectivity ratio at 36 h: African green monkey, Vero cells infected with ZIKV Paraiba/2015, Paraiba/2015, Vero cells, read-out: SI (selective index, CC50/IC50); for IC50: Zika virus, Vero
[4] = system: ZIKV Paraiba/2015; assay: Microplaque reduction assay, ZIKV Paraiba/2015 in A549 cells, post-infection treatment; assay type: cell-based; conditions: for IC50: Zika virus, A549, 36 h; for selectivity ratio at 36 h: human, A549 cells infected with ZIKV Paraiba/2015, Paraiba/2015, A549 cells, post-treatment, read-out: SI (selective index, CC50/IC50)
[5] = system: Vero cells; assay: Cell viability assay (CellTiter 96), Vero cells; assay type: cell-based, African green monkey; conditions: 36 or 72 h post-treatment, up to highest concentration tested (1,000 μM)
Experimental: as §1

[6] = system: A549 cells; assay: Cell viability assay (CellTiter 96), A549 cells; assay type: cell-based, human; conditions: 36 or 72 h post-treatment, up to highest concentration tested (1,000 μM)
Experimental: as §1

[7] = system: ZIKV Paraiba/2015; assay: Microplaque reduction assay, pre-treatment of Vero cells before ZIKV Paraiba/2015 infection; assay type: cell-based; conditions: for IC50: Zika virus, Vero, fixed 36 h p.i.
[8] = system: ZIKV Paraiba/2015; assay: Virus growth kinetics, ZIKV Paraiba/2015 in Vero cells; assay type: cell-based, Zika virus
Experimental: (§2) At 12, 24, 48, and 72 h post-infection (h p.i.), tissue culture supernatants were collected and titrated on Vero cells by immunostaining as described previously ([Marquez-Jurado et al., 2018]).
(§3) Dotted line indicates the limit of detection (20 FFU/ml).

[9] = system: ZIKV Paraiba/2015; assay: Virus growth kinetics, ZIKV Paraiba/2015 in A549 cells; assay type: cell-based, Zika virus
Experimental: as §2, §3

[10] = system: ZIKV-induced CPE in Vero cells; assay: ZIKV-induced cytopathic effect (light microscope), Vero cells; assay type: cell-based, African green monkey; conditions: MOI 0.1, 48 h p.i., 25 μM and more clearly 250 μM
[11] = system: ZIKV-induced CPE in A549 cells; assay: ZIKV-induced cytopathic effect (light microscope), A549 cells; assay type: cell-based, human; conditions: MOI 0.1, 48 h p.i., 25 μM and more clearly 250 μM
[12] = system: Vaccinia virus; conditions: 30 mg/kg/day, ref Smee et al., 2010; cited from earlier work
[13] = system: ZIKV Uganda/1947; assay: Microplaque reduction assay, ZIKV Uganda/1947 in Vero cells
[14] = system: caspase 3 and 7 activities; assay: Apoptosis assay (Caspase-Glo 3/7), ZIKV-infected Vero cells; conditions: 250 μM
[15] = system: caspase 3 and 7 activities; assay: Apoptosis assay (Caspase-Glo 3/7), ZIKV-infected A549 cells; conditions: 250 μM
[16] = system: ZIKV Nigeria/1968; assay: Microplaque reduction assay, ZIKV Nigeria/1968 in Vero cells
[17] = system: ZIKV Puerto Rico/2015; assay: Microplaque reduction assay, ZIKV Puerto Rico/2015 in Vero cells
[18] = system: ZIKV French Polynesia/2013; assay: Microplaque reduction assay, ZIKV French Polynesia/2013 in Vero cells
[19] = system: ZIKV; parameters: method as in Yang et al., 2018; conditions: SNB-19 cells; ref Yang et al., 2018; cited from earlier work
[20] = system: ZIKV; parameters: method as in Yang et al., 2018; conditions: ENV+ cells; ref Yang et al., 2018; cited from earlier work
[21] = system: ZIKV; parameters: method as in Kuivanen et al., 2017; conditions: human retinal pigment epithelial (RPE) cells; ref Kuivanen et al., 2017; cited from earlier work
[22] = system: ZIKV; parameters: method as in Bullard-Feibelman et al., 2017; conditions: Huh-7 cells; ref Bullard-Feibelman et al., 2017; cited from earlier work
[23] = system: ZIKV; parameters: method as in Bullard-Feibelman et al., 2017; conditions: Jar cells; ref Bullard-Feibelman et al., 2017; cited from earlier work
[24] = reading time not stated at the place (assay read at 36 and 72 h)

With `CCOC(=O)c1c(CSc2ccccc2)n(C)c2cc(Br)c(O)c(CN(C)C)c12` [ARB, Arbidol] the CC50 at 36 h [1] was 74.7 ± 1.09 µM, the CC50 at 72 h [1] was 59.4 ± 1.1 µM and the CC50 at 36 h [2] was 114.6 ± 1.08 µM. For the same compound, the CC50 at 72 h [2] was 91 ± 1.08 µM, the selectivity ratio at 36 h ([3]; post-treatment, 36 h) was 4.11 and the IC50 ([3]; 36 h) was 18.2 ± 1.16 µM. The IC50 [4] was 51.9 ± 1.08 µM and the selectivity ratio at 36 h [4] was 2.21.
`O=C(O)C1=CC(=C(c2ccc(O)c(C(=O)O)c2)c2ccc(O)c(C(=O)O)c2)C=CC1=O` [ATA, aurintricarboxylic acid] gave a CC50 at 36 h [1] of over 1000 µM, a CC50 at 72 h [1] of over 1000 µM and a CC50 [1, 24] of over 1000 µM. The “toxicity (cell viability)” value [5] was “did not observe any toxicity”, the CC50 at 36 h [2] was over 1000 µM and the CC50 at 72 h [2] was over 1000 µM. The CC50 [2, 24] was over 1000 µM, the “toxicity (cell viability)” value [6] was “did not observe any toxicity” and the selectivity ratio at 36 h ([3]; post-treatment, 36 h) was 72.1. For the same compound, the “SI (selective index, CC50/IC50)” value ([3]; Paraiba/2015, Vero cells, post-treatment, 36 h) was over 72.10, the “SI (selective index), range in Vero cells” value ([3]; Vero cells, range over all ZIKV strains and pre-/post-treatment settings of this study) was 56.98–95.24 and the IC50 ([3]; 36 h) was 13.9 ± 1.09 µM. The IC50 [4] was 33.3 ± 1.13 µM, the selectivity ratio at 36 h [4] was 26.3 and the selectivity ratio at 12 h ([7]; African green monkey, pre-treatment 12 h, read-out: SI (selective index, CC50/IC50)) was over 69.8. It also gave a selectivity ratio at 24 h ([7]; African green monkey, pre-treatment 24 h, read-out: SI (selective index, CC50/IC50)) of over 75.9, a selectivity ratio at 48 h ([7]; African green monkey, pre-treatment 48 h, read-out: SI (selective index, CC50/IC50)) of over 79.4 and a selectivity ratio at 72 h ([7]; African green monkey, pre-treatment 72 h, read-out: SI (selective index, CC50/IC50)) of over 95.2. It also gave an IC50 ([7]; pre-treatment 12 h before infection) of 14.3 ± 1.06 µM, an IC50 ([7]; pre-treatment 24 h before infection) of 13.2 ± 1.05 µM and an IC50 ([7]; pre-treatment 48 h before infection) of 12.6 ± 1.02 µM. For the same compound, the IC50 ([7]; pre-treatment 72 h before infection) was 10.5 ± 1.05 µM, the “ZIKV replication (viral titer in supernatant)” value (“ZIKV replication” below) ([8]; MOI 0.1, 2.5 μM) was “partial viral inhibition” and the “ZIKV replication” value ([8]; MOI 0.1, 250 μM) was “completely inhibited”. The “ZIKV replication” value ([9]; MOI 0.1, 25 μM) was “partial viral inhibition”, the “ZIKV replication” value ([9]; MOI 0.1, 250 μM) was “completely inhibited” and the “ZIKV-induced CPE” value [10] was “able to prevent ZIKV-induced CPE”. For the same compound, the “ZIKV-induced CPE” value [11] was “able to prevent ZIKV-induced CPE”, the “protection of mice from a lethal challenge” value [12] was “did not protect” and the selectivity ratio at 48 h ([13]; African green monkey, Vero cells infected with ZIKV Uganda/1947) was over 66.3. The IC50 ([13]; Zika virus, Vero, 48 h) was 15.1 ± 1.19 µM, the “caspase 3 and 7 induction as compared to mock-infected cells” value [14] was 0.4 fold and the “caspase 3 and 7 induction as compared to mock-infected cells” value [15] was 1.7 fold. It also gave a selectivity ratio at 60 h ([16]; African green monkey, Vero cells infected with ZIKV Nigeria/1968) of over 62.6, an IC50 ([16]; Zika virus, Vero, 60 h) of 16 ± 1.02 µM and a selectivity ratio at 48 h ([17]; African green monkey, Vero cells infected with ZIKV Puerto Rico/2015) of over 57. The IC50 ([17]; Zika virus, Vero, 48 h) was 17.6 ± 1.16 µM, the selectivity ratio at 48 h ([18]; African green monkey, Vero cells infected with ZIKV French Polynesia/2013) was over 76.8 and the IC50 ([18]; Zika virus, Vero, 48 h) was 13.9 ± 1.01 µM.
For `CC[C@H]1CN2CCc3cc(OC)c(OC)cc3[C@@H]2C[C@@H]1C[C@H]1NCCc2cc(OC)c(OC)cc21` [emetine], the SI [19] is given as 9.84 and the SI [20] is given as 2.88.
For `Nc1ccn([C@@H]2O[C@H](CO)[C@@H](O)C2(F)F)c(=O)n1` [gemcitabine], the SI [21] is given as > 1,000.
For `COC1=CC(c2cc3ccccc3[nH]2)=N/C1=C\c1[nH]c(C)cc1C` [obatoclax], the SI [21] is given as 65.
For `C[C@H]1C/C=C/Cc2cccc(O)c2C(=O)O[C@@H](C/C=C/NC(=O)C#Cc2ccccc2)C[C@H]1O` [saliphenylhalamide], the SI [21] is listed as over 200.
In the case of `CC(C)OC(=O)[C@H](C)N[P@](=O)(OC[C@H]1O[C@@H](n2ccc(=O)[nH]c2=O)[C@](C)(F)[C@@H]1O)Oc1ccccc1` [sofosbuvir], the SI [22] is listed as over 52.63 and the SI [23] is listed as over 90.9.
